# In patent publication US7935359B2, “Use of L 2-thiohistidine or one of its derivatives as a depigmenting agent in cosmetics” (LVMH Recherche, priority 2006, dated 2011):
# System: melanocytes of separated mammary epidermis
# Test: Depigmenting activity on separated epidermis incubated with L-DOPA/active principle solution, optical microscopy and counting of melanin grains
# Format: cell-based, human
# Conditions: for depigmenting activity: separated epidermis, L-DOPA; for grains of melanin counted, Mean: mean of 3 tests
# Protocol: In this Example a quantitative comparative test is carried out on a separated epidermis in order to show the depigmenting activity of L-2-thiohistidine compared with various depigmenting agents known in the prior art, especially kojic acid or ergothioneine, and also compared with a control sample comprising DOPA oxidase.
# The procedure of this test is similar to that described in Example II of the LVMH RECHERCHE document FR-A-2,867,384 published on 16 Sep. 2005, to which those skilled in the art may usefully refer and which is incorporated by reference.
# Frozen mammary epidermis originating from plastic surgery on a person, reference P148AB39, are separated by incubation in 2N NaBr for 1 h 45 min at 37° C. They were fixed in a formalized fixative, buffered, rinsed and brought into contact with a volume/volume mixture of L-DOPA/active principle solution. After incubation, they were rinsed and mounted between slides and cover slips with mounting medium.
# The epidermis were observed by optical microscopy with a magnification of 10.
# The depigmenting activity which can be seen in FIGS. 1 to 5 was quantified statistically by counting the grains of melanin over a series of 3 tests. The values are shown in the Table below, in which the values obtained for the Student test are specified for ergothioneine versus L-2-thiohistidine and for kojic acid versus L-2-thiohistidine at the same concentration. The Student test is said to be significant if the value obtained is less than 0.05. Conclusions
SMILES,"grains of melanin counted, Test 1 (50 μg)","grains of melanin counted, Test 2 (50 μg)","grains of melanin counted, Test 3 (50 μg)",depigmenting activity (50 μg/ml),"grains of melanin counted, Mean (50 μg)","grains of melanin counted, Test 1 (150 μg)","grains of melanin counted, Test 2 (150 μg)","grains of melanin counted, Test 3 (150 μg)","depigmenting activity compared with reference agents (in words) (150 μg/ml, versus kojic acid)",depigmenting activity (150 μg/ml),"grains of melanin counted, Mean (150 μg)","depigmenting activity compared with reference agents (in words) (comparable concentration, versus ergothioneine)"
"NC(Cc1c[nH]c(=S)[nH]1)C(=O)O [L-2-thiohistidine, alpha-amino-2,3-dihydro-2-thioxo-1H-imidazole-4-propanoic acid]",162,178,176,60%,172,102,115,116,very good depigmenting activity similar to that of the previously known kojic acid,75%,111,better depigmenting activity than ergothioneine
"C[N+](C)(C)[C@@H](Cc1c[nH]c(=S)[nH]1)C(=O)[O-] [ergothioneine, reference compound]",194,210,190,~45%,198,,,,,,,
"O=c1cc(CO)occ1O [kojic acid, reference compound]",,,,,,124,137,138,,~75%,133,
